Measured values published in patent publication US12377095B2, “Use of ligustrazine nitrone derivatives in treatment and prevention of diabetic complication diseases” (QINGDAO HAILAN PHARMACEUTICALS CO., LTD., priority 2019, dated 2025).

How the values were obtained:
STZ-induced DKD rats [1] = test: HE staining of kidney tissue, STZ-induced SD rat DKD model; format: in vivo; conditions: 10 mg/kg i.g. once/day, 6 weeks
Method: (§1) Before the injection, the rats were fasted for 12 hours without water. After weighing, the rats were injected with 55 mg/kg STZ intraperitoneally (STZ needs to be injected quickly, and the injection was completed within 10 minutes), and then returned to the cage to ensure that the rats had sufficient drinking water for 24 hours. Rats were injected with an equal volume of citrate buffer (pH 4.5). After STZ injection for 3 weeks, blood was collected from the tail vein, and blood glucose ≥16.7 mmol/L was used as the criteria for the standard of the rats.
(§2) The route of administration is intragastric administration. TBN was administered twice a day (fixed at 9:00-10:00 am and 3:00-4:00 pm), and Losartan was administered once a day (fixed at 9:00-10:00 am) continuously for 6 weeks.
At the end of the experiment, kidney tissues were quickly separated, fixed with 4% paraformaldehyde and embedded in paraffin, serially sliced, 5 μm each, dried at 37° C. for 1 h, and then stained with hematoxylin and eosin (HE). The process is briefly as follows: paraffin sections were taken out of the 65° C. oven and immediately put in xylene to dewax and rehydrated with gradient alcohol, stained with hematoxylin staining solution for 10 minutes, and microscopically controlled alcohol differentiation with 1% hydrochloric acid was performed until the chromatin of the nucleus and the nucleus becomes clear; 1% ammonia water-ethanol solution is blue; 0.5% eosin Y-ethanol solution is stained for 3 min, and finally dehydrated routinely, mounted, and the tissue morphology changes are observed under a light microscope. […] The glomerular volume of rats in the DKD group of the Vehicle group increased, the mesangial area was diffusely widened, the mesangial cells were proliferated, the capillary loops were expanded, the mesangial matrix increased, and the glomerular capillary basement membrane was irregularly thickened. Renal pathological changes such as vacuole deformation, shedding of renal tubular epithelial cells and infiltration of a large number of inflammatory cells (FIG. 9A).

STZ-induced DKD rats [2] = test: PAS staining, glomerular sclerosis index, STZ-induced DKD rats; format: in vivo, rat; conditions: all doses of TBN (10, 30, 60 mg/kg twice/day); Losartan 10 mg/kg once/day; 6 weeks; P<0.001 vs Vehicle
Method: as §1, §2
At the end of the experiment, kidney tissues were quickly separated, fixed with 4% paraformaldehyde and embedded in paraffin, serially sliced, 5 μm each, dried at 37° C. for 1 h, and then stained with PAS. The process is briefly as follows: paraffin sections are taken out of the 65° C. oven and immediately placed in xylene for deparaffinization and gradient alcohol rehydration, followed by periodic acid treatment for 5 min and Schiff treatment for 10 min, and then differentiation is performed with differentiation solution for 10 s. […]

STZ-induced DKD rats [3] = test: Masson staining, interstitial fibrosis index, STZ-induced DKD rats; format: in vivo, rat; conditions: 10 mg/kg once/day, P<0.05 vs vehicle
Method: as §1, §2
At the end of the experiment, the kidney tissues were quickly separated, fixed with 4% paraformaldehyde and embedded in paraffin, serially sliced, 5 μm each, dried at 37° C. for 1 h, and then subjected to Masson staining. The process is briefly as follows: paraffin sections are taken out of the 65° C. oven and immediately put in xylene for dewaxing and gradient alcohol rehydration, according to the kit instructions, add reagent A (a mixture of equal amounts of A1 and A2) for dyeing for 8 min; then use Reagent B differentiates and reagent C turns blue; reagent D stains for 7 min; reagent E washes for 1 min; reagent F washes for 1 min; reagent G stains for 1 min; dehydrated with 95% ethanol and absolute ethanol, transparent xylene, sealed with neutral gum piece.

db/db mice [4] = test: 24 h urine microalbumin in db/db mice; format: in vivo, mouse; conditions: 10 mg/kg once/day, 6 weeks, P<0.001
From the text: db/db mice are congenital obese type 2 DKD mice with spontaneous mutations in the leptin receptor (Leptin receptor, Lepr) due to a point mutation in the leptin receptor gene GT located on chromosome 4. The course of polyphagia, polyuria, diabetes and hyperglycemia is similar to that of humans, and it is currently the most widely used type 2 spontaneous animal model of DKD. The db/db mice have a series of complications with the aggravation of diabetes. The main pathological changes of renal tissue are the expansion of the glomerular mesangial interstitium, the thickening of the glomerular basement membrane, and the excessive accumulation of extracellular matrix. However, the glomerular mesangium of db/db mice changes relatively slowly, and the glomerular mesangium will not be dissolved or nodular glomerulosclerosis, and there is no progressive renal insufficiency. […]
db/db mice were tested for 24 h urine microalbumin in the 4th and 6th week after drug treatment. […] The absorbance value (OD value) was measured at 450 nm wavelength; the blank control hole was used for adjusting zero, the microalbuminuria standard concentration was used as the abscissa, the OD value as the ordinate, the standard curve regression equation was calculated, and on the basis of the regression equation and the sample's OD value, the concentration of the sample was determined.

db/db mice [5] = test: Electron microscopy of kidney tissue in db/db mice; format: in vivo, mouse; conditions: 10 mg/kg, 6 weeks (TBN P<0.05; Losartan P<0.01)
From the text: db/db mice are congenital obese type 2 DKD mice with spontaneous mutations in the leptin receptor (Leptin receptor, Lepr) due to a point mutation in the leptin receptor gene GT located on chromosome 4. The course of polyphagia, polyuria, diabetes and hyperglycemia is similar to that of humans, and it is currently the most widely used type 2 spontaneous animal model of DKD. The db/db mice have a series of complications with the aggravation of diabetes. The main pathological changes of renal tissue are the expansion of the glomerular mesangial interstitium, the thickening of the glomerular basement membrane, and the excessive accumulation of extracellular matrix. However, the glomerular mesangium of db/db mice changes relatively slowly, and the glomerular mesangium will not be dissolved or nodular glomerulosclerosis, and there is no progressive renal insufficiency.
Six-week-old db/db mice were purchased, and start the administration after adaptive feeding for 1 week (i.e., 7-week-old). TBN is administered twice a day (fixed by starting from 9:00-10:00 am and 3:00-4:00 pm, with an interval of 6 hours), and the positive control drug Losartan was administered once a day (fixed at 9:00-10:00 am) for 6 weeks.
After the mice were executed, the renal cortex was quickly taken with sharp blade (performed on ice); fixed with 2.5% glutaraldehyde (pH 7.4) at 4° C. for 6 h; then fixed for 2 h in a stationary liquid having 1:1 of 0.2 mmol/L PBS and 2% osmic acid, and dehydrated with gradient acetone at 4° C., 10 min for each of 50%, 70%, 90% acetone, then dehydrated with 100% acetone at room temperature twice, each time 15 min; in 1:1 acetone and Epon812 epoxy resin embedded mixed liquid, soaked at room temperature for 30 min; then dipped through the pure furnishings overnight, the embedding agent was made enveloping into tissue blocks completely to replace the dehydrating agent; the samples were embedded in the embedder for ultra-thin slicing, placed at 35° C. for 12 h; placed at 45° C. for 12 h; placed at 60° C. for 48 h; placed in a 37° C. oven for 36 h, in a 60° C. oven for 36 h; 1.5 μm semi-slice was prepared with an ultra-thin slicer; positioning under optical microscope, a trapeter having a top area of about 1 mm^2 was shaped to prepare 60-70 nm thick ultra-thin slices; dyed in dark with acetate hydroxide liquid for 10 min, and dyed in lead-stained citrate for 10 min.

db/db mice [6] = test: Urinary albumin/creatinine ratio in db/db mice, TBN alone and in combination; format: in vivo, mouse; conditions: TBN 30 mg/kg, Losartan 10 mg/kg, TBN+Losartan (FIG. 17)
Method: Grouping and dosing are the same as in Example 9. At the end of the experiment, 24 h urine samples were collected, antiseptic treatment was performed to all urine specimens with toluene, 24 h urine was centrifuged to remove precipitation and placed in a 1.5 mLEP tube and then placed in a refrigerator at −20° C. for later use, urinary albumin content was measured with ELISA kits, urine creatinine levels were detected by use of an automatic biochemical analyzer, and the ratio of both was calculated. The results as shown in FIG. 19 indicate that the ratio of urinary microalbumin to creatinine in DB/DB group was higher than that in wt/wt group, and the db/db mice 24 h urinary albumin creatinine ratio decreased in TBN group, losartan group and TBN-losartan combination group. Referring to this method, metformin (150 mg/kg, qd), and HIF-PH inhibitor roxadustat (10 mg/kg, once 2 every days) were given via oral administration, the combination groups of TBN with respectively metformin and roxadustat also reduce 24 h urinary albumin creatinine ratio.

STZ-induced DKD rats [7] = test: Body weight, water intake and food intake of STZ-induced DKD rats; format: in vivo, rat
Method: (§3) SD rats (200±10 g) were used as model animals, which were fasted for 12 h before injection. STZ was dissolved in citrate buffer at 1% concentration, and rats were fasted and intraperitoneally injected with 55 mg/kg STZ and placed in the cage, the rats being ensured with adequate water intake for 24 h. STZ injections need to be fast and complete within 10 minutes of injection. The normal control group was injected with an equal volume of pH 4.5 citric acid-sodium citrate buffer. The state of the animals (multiple drinking and polyuria) was observed. After 3 weeks of STZ injection, blood was collected from the tail vein, and fasting blood glucose ≥16.7 mmol/L was measured as the standard for diabetic nephropathy in rats.
(§4) DKD rats were randomly assigned to 6 groups and given with different drugs. After 6 weeks of administration, the experiment was terminated and the protective effect of the drug on DKD rats was observed.
The general condition and body weight changes after rat modeling were observed weekly. The general conditions include the activity, mental state, coat color, diet, water intake and urine volume of the rats. The amount of water and the amount of feed were recorded weekly.

STZ-induced DKD rats [8] = test: Retinopathy of STZ-induced DKD rats; format: in vivo, rat; conditions: DKD rats after treatment, Table 1 (FIG. 5)
Method: as §3, §4
During the experiment, the retinopathy of rats was observed during daily administration, and the dates of retinopathy in different groups of rats were recorded.

STZ-induced DKD rats [9] = test: Blood glucose and urine protein in STZ-induced DKD rats; format: in vivo, rat
Method: as §3, §4
During the experiment, the blood glucose of the rats was monitored after the completion of the modeling and after the completion of the administration, and urine protein was collected once at 24 hour.

STZ-induced DKD rats [10] = test: Serum biochemical parameters of STZ-induced DKD rats; format: in vivo, rat; conditions: six weeks after administration, dose-dependent
Method: as §3, §4
Six weeks after the administration, the rats were anesthetized, and the blood was taken from the abdominal aorta, and, after standing for 1 hour, was centrifuged at 3000 rmp for 10 min and stored at −70° C. Serum levels of creatinine, urea nitrogen, cholesterol and triglycerides were measured using an automated biochemical analyzer.

STZ-induced DKD rats [11] = test: Kidney index of STZ-induced DKD rats; format: in vivo, rat; conditions: after 6 weeks of administration
Method: as §3, §4
After 6 weeks of administration, the kidney tissue was uniformly separated by an autoclave surgical instrument, and washed with normal saline. After the filter paper was blotted, the fine balance was weighed, and then stored in a refrigerator at −80° C. for use. Kidney index (relative to kidney weight) is kidney weight (mg)/body weight (g)[…].

EPO mRNA = EPO mRNA by RT-PCR in CoCl2-induced HepG2 cell hypoxia model; conditions: hypoxia model caused by cobalt dichloride, concentration not given

SMILES	glomerular area (STZ-induced DKD rats [1])	renal tissue damage (HE) (STZ-induced DKD rats [1])	glomerular sclerosis index (STZ-induced DKD rats [2])	interstitial fibrosis index (STZ-induced DKD rats [3])	24 h urine microalbumin production (db/db mice [4])	thickness of the glomerular base film (db/db mice [5])	24 h urinary albumin creatinine ratio (db/db mice [6])	body weight (STZ-induced DKD rats [7]; STZ-induced diabetic nephropathy rats, FIG. 1a)	water intake (STZ-induced DKD rats [7]; vs model group, FIG. 1b)	food intake (STZ-induced DKD rats [7]; vs model group, FIG. 1c)	number of retinopathy (STZ-induced DKD rats [8])	time when retinopathy occurred (STZ-induced DKD rats [8])	urinary protein content in urine (STZ-induced DKD rats [9]; 24 hour urine, DKD rats)	blood glucose (STZ-induced DKD rats [9]; after 6 weeks of treatment)	serum cholesterol (STZ-induced DKD rats [10])	serum creatinine (STZ-induced DKD rats [10])	serum triglyceride (STZ-induced DKD rats [10])	serum urea nitrogen (STZ-induced DKD rats [10])	kidney index (STZ-induced DKD rats [11])	expression of EPO mRNA (EPO mRNA)
CCCCc1nc(Cl)c(CO)n1Cc1ccc(-c2ccccc2-c2nn[nH]n2)cc1 [Losartan, reference compound]	did not significantly reduce	improved	significantly reduce	significantly reduced	significantly reduced	significantly reduced	decreased													
Cc1nc(/C=[N+](\[O-])C(C)(C)C)c(C)nc1/C=[N+](\[O-])C(C)(C)C [TN-2]								no effect	significantly lower	significantly lower	reduced	relatively delayed	significantly reduced	significantly decreased	significantly reduce	significantly reduce	significantly reduce	significantly reduce	significantly reduced	increase
